Experimental data published in patent US20240109873A1, “ANTAGONISTS OF THE MUSCARINIC ACETYLCHOLINE RECEPTOR M4” (Vanderbilt University, priority 2020, published 2024).

Molecular target: T1, human mAChR M4 (Homo sapiens, UniProt P08173)
T1 construct: expressed in transfected cells; host or cells: CHO-K1 (ATCC), co-transfected with chimeric G protein Gqi5
T1 sequence (P08173 1-479): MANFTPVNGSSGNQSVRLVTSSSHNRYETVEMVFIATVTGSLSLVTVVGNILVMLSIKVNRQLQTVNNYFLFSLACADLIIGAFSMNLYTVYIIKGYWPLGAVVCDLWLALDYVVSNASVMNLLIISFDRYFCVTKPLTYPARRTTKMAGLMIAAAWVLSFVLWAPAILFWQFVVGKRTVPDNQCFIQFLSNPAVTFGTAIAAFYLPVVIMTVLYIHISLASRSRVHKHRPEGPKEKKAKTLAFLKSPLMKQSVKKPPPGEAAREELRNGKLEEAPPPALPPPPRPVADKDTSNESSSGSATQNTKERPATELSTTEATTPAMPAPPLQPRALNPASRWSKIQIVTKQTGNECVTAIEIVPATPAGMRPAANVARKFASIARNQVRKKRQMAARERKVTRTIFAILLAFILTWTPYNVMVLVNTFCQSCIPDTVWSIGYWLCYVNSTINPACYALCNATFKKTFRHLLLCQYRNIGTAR
Test: mAChR M4 cell-based functional assay (calcium flux, antagonism of EC80 acetylcholine response, M4/Gqi5/CHO-K1 cells)
Conditions: for remaining activity at 30 µM: CHO-K1, % ACh maximum at 30 μM, read-out: Human M4 Emin; for IC50: decrease of the response elicited by an EC80 concentration of acetylcholine, CHO-K1 cells, Gqi5
In short: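 CHO-K1 cells stably expressing human M4 with chimeric Gqi5, loaded with Fluo-4 AM; calcium flux read on FDSS. Compounds (10-point, 1:3 curves) added first, then EC20 acetylcholine at 143 s and EC80 at 268 s. IC50 from decrease of EC80 acetylcholine response, four-parameter logistic fit.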

Row | remaining activity at 30 µM | IC50 | Structure (SMILES)
1 | 3% | 0.7 nM | [2H]C([2H])(C1CCOCC1)N1C[C@H]2C[C@H](Nc3nnc(-c4cnccc4C(F)(F)F)c4sccc34)C[C@H]2C1 [Compound 34, N-((3aR,5s,6aS)-2-((tetrahydro-2H-pyran-4-yl)methyl-d2)octahydrocyclopenta[c]pyrrol-5-yl)-7-(4-(trifluoromethyl)pyridin-3-yl)thieno[2,3-d]pyridazin-4-amine]
2 | 4% | 0.52 nM | [2H]C([2H])(C1CCOCC1)N1C[C@H]2C[C@H](Nc3nnc(-c4cnccc4C(F)(F)F)c4ccsc34)C[C@H]2C1 [Compound 35, N-((3aR,5s,6aS)-2-((tetrahydro-2H-pyran-4-yl)methyl-d2)octahydrocyclopenta[c]pyrrol-5-yl)-4-(4-(trifluoromethyl)pyridin-3-yl)thieno[2,3-d]pyridazin-7-amine]
3 | 6% | 39 nM | [2H]C([2H])(N1C[C@H]2C[C@H](Nc3ccc(-c4cnccc4C(F)(F)F)nn3)C[C@H]2C1)C(F)(F)C1CCOCC1 [Compound 36, (3aR,5s,6aS)-2-(2,2-difluoro-2-(tetrahydro-2H-pyran-4-yl)ethyl-1,1-d2)-N-(6-(4-(trifluoromethyl)pyridin-3-yl)pyridazin-3-yl)octahydrocyclopenta[c]pyrrol-5-amine]
4 | 4% | 21 nM | [2H]C([2H])(N1C[C@H]2C[C@H](Nc3nnc(-c4cnccc4C(F)(F)F)cc3C)C[C@H]2C1)C(F)(F)C1CCOCC1 [Compound 37, (3aR,5s,6aS)-2-(2,2-difluoro-2-(tetrahydro-2H-pyran-4-yl)ethyl-1,1-d2)-N-(4-methyl-6-(4-(trifluoromethyl)pyridin-3-yl)pyridazin-3-yl)octahydrocyclopenta[c]pyrrol-5-amine]
5 | 5% | 0.48 nM | [2H]C([2H])(C1CCOCC1)N1C[C@H]2C[C@H](Nc3ccc(-c4cccnc4C(F)F)nn3)C[C@H]2C1 [Compound 38, (3aR,5s,6aS)-N-(6-(2-(difluoromethyl)pyridin-3-yl)pyridazin-3-yl)-2-((tetrahydro-2H-pyran-4-yl)methyl-d2)octahydrocyclopenta[c]pyrrol-5-amine]
6 | 23% | 0.8 nM | [2H]C([2H])(C1CCOCC1)N1C[C@H]2C[C@H](Nc3ccc(-c4cccnc4C(F)(F)F)nn3)C[C@H]2C1 [Compound 39, (3aR,5s,6aS)-2-((tetrahydro-2H-pyran-4-yl)methyl-d2)-N-(6-(2-(trifluoromethyl)pyridin-3-yl)pyridazin-3-yl)octahydrocyclopenta[c]pyrrol-5-amine]
7 | 3% | 0.74 nM | FC(F)(F)c1ncccc1-c1ccc(N[C@H]2C[C@@H]3CN(CC4CCOCC4)C[C@@H]3C2)nn1 [Compound 40, (3aR,5s,6aS)-2-((tetrahydro-2H-pyran-4-yl)methyl)-N-(6-(2-(trifluoromethyl)pyridin-3-yl)pyridazin-3-yl)octahydrocyclopenta[c]pyrrol-5-amine]
8 | 2% | 8.7 nM | [2H]C([2H])(C1CCOCC1)N1C[C@H]2C[C@H](Nc3ccc(-c4cccnc4C(F)(F)F)nc3)C[C@H]2C1 [Compound 41, (3aR,5s,6aS)-2-((tetrahydro-2H-pyran-4-yl)methyl-d2)-N-(2′-(trifluoromethyl)-[2,3′-bipyridin]-5-yl)octahydrocyclopenta[c]pyrrol-5-amine]
9 | 2% | 1.3 nM | [2H]C([2H])(CC1CCOCC1)N1C[C@H]2C[C@H](Nc3ccc(-c4cccnc4C(F)(F)F)nn3)C[C@H]2C1 [Compound 42, (3aR,5s,6aS)-2-(2-(tetrahydro-2H-pyran-4-yl)ethyl-1,1-d2)-N-(6-(2-(trifluoromethyl)pyridin-3-yl)pyridazin-3-yl)octahydrocyclopenta[c]pyrrol-5-amine]
10 | 2% | 2.6 nM | [2H]C([2H])(C1CCOC(C)(C)C1)N1C[C@H]2C[C@H](Nc3ccc(-c4cccnc4C(F)(F)F)nn3)C[C@H]2C1 (stereo partly drawn) [Compound 43, (3aR,5s,6aS)-2-((2,2-dimethyltetrahydro-2H-pyran-4-yl)methyl-d2)-N-(6-(2-(trifluoromethyl)pyridin-3-yl)pyridazin-3-yl)octahydrocyclopenta[c]pyrrol-5-amine]
11 | 2% | 1.4 nM | [2H]C1([2H])CC(C([2H])([2H])N2C[C@H]3C[C@H](Nc4ccc(-c5cccnc5C(F)(F)F)nn4)C[C@H]3C2)CC([2H])([2H])O1 [Compound 44, (3aR,5s,6aS)-2-((tetrahydro-2H-pyran-4-yl-2,2,6,6-d4)methyl-d2)-N-(6-(2-(trifluoromethyl)pyridin-3-yl)pyridazin-3-yl)octahydrocyclopenta[c]pyrrol-5-amine]
12 | 2% | 14.7 nM | [2H]C([2H])(C1CC(C)(C)OC(C)(C)C1)N1C[C@H]2C[C@H](Nc3ccc(-c4cccnc4C(F)(F)F)nn3)C[C@H]2C1 [Compound 45, (3aR,5s,6aS)-2-((2,2,6,6-tetramethyltetrahydro-2H-pyran-4-yl)methyl-d2)-N-(6-(2-(trifluoromethyl)pyridin-3-yl)pyridazin-3-yl)octahydrocyclopenta[c]pyrrol-5-amine]
13 | 2% | 21.7 nM | [2H]C([2H])([C@H]1CCCOC1)N1C[C@H]2C[C@H](Nc3ccc(-c4cccnc4C(F)(F)F)nn3)C[C@H]2C1 [Compound 46, (3aR,5s,6aS)-2-(((R)-tetrahydro-2H-pyran-3-yl)methyl-d2)-N-(6-(2-(trifluoromethyl)pyridin-3-yl)pyridazin-3-yl)octahydrocyclopenta[c]pyrrol-5-amine]
14 | 2% | 4 nM | [2H]C([2H])([C@@H]1CCCOC1)N1C[C@H]2C[C@H](Nc3ccc(-c4cccnc4C(F)(F)F)nn3)C[C@H]2C1 [Compound 47, (3aR,5s,6aS)-2-(((S)-tetrahydro-2H-pyran-3-yl)methyl-d2)-N-(6-(2-(trifluoromethyl)pyridin-3-yl)pyridazin-3-yl)octahydrocyclopenta[c]pyrrol-5-amine]
15 | 2% | 0.87 nM | [2H]C([2H])([C@@H]1CCCCO1)N1C[C@H]2C[C@H](Nc3ccc(-c4cccnc4C(F)(F)F)nn3)C[C@H]2C1 [Compound 48, (3aR,5s,6aS)-2-(((S)-tetrahydro-2H-pyran-2-yl)methyl-d2)-N-(6-(2-(trifluoromethyl)pyridin-3-yl)pyridazin-3-yl)octahydrocyclopenta[c]pyrrol-5-amine]
16 | 2% | 0.55 nM | [2H]C([2H])([C@H]1CCCCO1)N1C[C@H]2C[C@H](Nc3ccc(-c4cccnc4C(F)(F)F)nn3)C[C@H]2C1 [Compound 49, (3aR,5s,6aS)-2-(((R)-tetrahydro-2H-pyran-2-yl)methyl-d2)-N-(6-(2-(trifluoromethyl)pyridin-3-yl)pyridazin-3-yl)octahydrocyclopenta[c]pyrrol-5-amine]
